Measured values taken from patent publication US7671176B2, “Opiate receptor polypeptide” (The Research Foundation of SUNY, priority 2001, dated 2010).

Test system: mu4 opiate receptor mRNA in mononuclear cells
Assay: Real-time RT-PCR of mu4 mRNA expression in treated human mononuclear cells
Format: cell-based
Details: SNAP 1 μM
Experimental: Human heparinized whole blood cells obtained from volunteer blood donors (Long Island Blood Services; Melville, N.Y.) were immediately separated using the 1-Step Polymorphs (Accurate Chemical and Scientific Corporation, Westbury, N.Y.) gradient medium. Five mL of the heparinized blood was layered over 3.5 mL of polymorphs in a 14 mL round-bottom tube and centrifuged for 35 minutes at 500×g in a swinging-bucket rotor at 18° C. […] In addition, residual red blood cells were lysed using ACK lysing buffer (Current Protocol in Immunology). […] The cells were then treated with SNAP (1 μM), SNAP plus superoxide dismutase (SOD; 100 units/mL) (SIGMA St. Louis, Mo.), or SOD (100 U/mL), respectively.
After incubation, mononuclear cells were pelleted by centrifugation, and total RNA was isolated with the RNeasy Protect Mini Kit (Qiagen, Stanford, Calif.) following the directions supplied by the manufacturer. RNA was eluted with 50 μL of RNase-free water.
First strand cDNA synthesis was performed using random hexamers (GIBCO, BRL, Gaithesburg, Md.). 3 μg of total RNA isolated from human mononuclear cells were denatured at 95° C. and reverse transcribed at 40° C. for 1 hour using Superscript® II Rnase H-RT (GIBCO BRL, Gaithesburg Md.). Five μL of the RT product was used for the real-time PCR reaction.
Primers and probe specific for the mu4 opiate receptor sequence were designed as follows using the software Primer Express® (Applied Biosystems). […] The Taqman® probe was constructed with the 5′ reporter dye 6-carboxyfluorescein and a 3′ quencher dye 6-carboxy-tetramethyl-rhodoamine. The 2× universal master mix (Applied Biosystems) containing PCR buffer, MgCl2, dNTPs, and the thermal stable AmpliTaq Gold® DNA polymerase was used in the PCR reactions. In addition, 200 μM of reverse and forward primers, 100 μM Taqman® probe, 5 μL of RT product, and Rnase/DNase-free water were added to the master mix to a final volume of 50 μL. […] The PCR results were analyzed with the GeneAmp® 5700 SDS software (Applied Biosystems). […]

SMILES: CC(=O)NC(C(=O)O)C(C)(C)SN=O (racemic) [SNAP, S-nitroso-N-acetyl-DL-penicillamine]
- mu4 mRNA expression (after 6 hours of treatment, p=0.029 vs control): 8±5.6 relative mRNA level
- mu4 mRNA expression (after 24 hours of treatment, n=1): 10.5 relative mRNA level
- mu4 mRNA expression (treated for 30 minutes, SOD 100 units/mL, nontreated cells 1.0): 0.05 relative mRNA level
